{
  "source": "patent EP0042596B1",
  "about": "“Novel adenine nucleoside derivatives, their preparation and pharmaceutical compositions containing them” (REGENTS OF THE UNIVERSITY OF MINNESOTA, priority 1980, dated 1981)",
  "key": {"[1]": {"test_system": "herpes simplex virus type 2", "test": "Genital herpes infection in female guinea pigs, suppression of lesion development (intravaginal agarose gel treatment)", "type": "in vivo", "settings": "for animals with lesions: 5% vidarabine formulation in 0.8% agarose gel", "procedure": "The antiviral efficacy of these compounds in the treatment of genital infections in female guinea pigs was determined, the infecting virus being herpes simplex virus […]. The in vivo efficacy was measured in terms of the effect of these compounds in suppressing lesion development induced by the infecting virus. The incidence of lesions for virus-infected animals treated with the test compound was measured and compared with the results obtained for virus-infected control animals treated with placebo, or with the results obtained for untreated virus-infected animals. In the control group of animals small lesions usually appeared 3 to 4 days following infection, the virus-induced lesions reaching a maximum severity around 7 days postinfection this peak being followed by scab formation and then healing. In each case the test animals were infected by intravaginal inoculation with the herpes simplex virus type 2 in 0.1 ml of cell culture medium. 0.1 ml of a 0.8% agarose gel containing the test compound at the stated concentration was then administered intravaginally, treatment commencing (unless otherwise stated) 3 hours postinfection and the test compound being administered 3 times daily for 7 days. […] For the results given in Table 2, drug administration was commenced 6 hours postinfection and the test compound administered three times daily for 5 days."}, "[2]": {"test": "Solubility in water at 37°C", "type": "physicochemical", "settings": "at 37°C in water"}, "[3]": {"settings": "i.p."}},
  "data": [
    {"molecule": "COCC(=O)OC[C@H]1C[C@@H](n2cnc3c(N)ncnc32)[C@@H](O)[C@@H]1O", "note": "(racemic) [Compound B, 9-[2α,3β-dihydroxy-4α(methoxyacetoxymethyl)cyclopent-1 α-yl]adenine]", "values": [
      {"measurement": "animals developed virus-induced lesions", "setting": "[1]; administration commenced 6 hours postinfection, three times daily for 5 days, controls 60-90%", "value": 33, "unit": "%"},
      {"measurement": "solubility", "setting": "[2]", "value": 75, "unit": "mg/mL"},
      {"measurement": "signs of toxicity", "setting": "[3]; highest dose tested of 750 mg/kg", "value": "no signs of toxicity at all"}
    ]},
    {"molecule": "Nc1ncnc2c1ncn2[C@@H]1C[C@H](CO)[C@@H](O)[C@@H]1O", "note": "(racemic) [cyclaradine, 9 - [2α,3β-dihydroxy - 4α - (hydroxymethyl)cyclopent - 1 a - yl] - adenine]", "values": [
      {"measurement": "test animals had lesions", "setting": "[1]; day 7 postinfection, concentration 3%", "value": 100, "unit": "%"},
      {"measurement": "test animals had lesions", "setting": "[1]; day 7 postinfection, concentration 10%", "value": 100, "unit": "%"},
      {"measurement": "solubility", "setting": "[2]", "value": 1, "unit": "mg/mL"},
      {"measurement": "lethality", "setting": "[3]; dose of 900 mg/kg", "value": "not lethal"}
    ]},
    {"molecule": "COCC(=O)OC[C@H]1O[C@@H](n2cnc3c(N)ncnc32)[C@@H](O)[C@@H]1O", "note": "[Compound A, 9-s-D-Arabinofuranosyladenine-5'-methoxyacetate]", "values": [
      {"measurement": "lesion formation", "setting": "[1]; concentration of 15% in 0.8% agarose gel, intravaginal, start 3 hours postinfection, 3 times daily for 7 days", "value": "completely suppressed lesion formation"}
    ]},
    {"molecule": "Nc1ncnc2c1ncn2[C@@H]1O[C@H](CO)[C@@H](O)[C@@H]1O", "note": "[vidarabine, 9-(β-D-arabinofuranosyl)-adenine]", "values": [
      {"measurement": "animals with lesions", "setting": "[1]; day 4 postinfection", "value": 50, "unit": "%"},
      {"measurement": "animals with lesions", "setting": "[1]; day 7 postinfection", "value": 80, "unit": "%"}
    ]}
  ]
}
